Assay: gradient 5% acetonitrile 3 min, to 50% in 2 min, to 85% in 15 min, held 3 min, 100 µL/min
Details: column: Zorbax Extend-C18 2.1 x 50 mm; eluents: water / acetonitrile, 0.1% formic acid
Summary of the method: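 Over 3 months, pure standards in mixtures of ~100 molecules were run by HPLC coupled to a quadrupole time-of-flight mass spectrometer in positive and negative ionization mode. The column was a Zorbax Extend-C18 (2.1 × 50 mm, 1.8 μm) at 100 μL/min, eluted with water and acetonitrile each holding 0.1% formic acid, with 40 μL dead and 900 μL dwell volumes. Retention time was determined from adduct peaks chosen by software and checked manually.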

RP-LC retention time	Compound
800 s	CC(=O)CC(=O)Nc1ccc2ccccc2c1
603 s	Cc1ccccc1NC(=O)N1CCN(c2nc(N3CCOCC3)nc(-n3ccnc3)n2)CC1
688 s	Cc1nccn1CCC(C(N)=O)(c1ccccc1)c1ccccc1
903 s	COc1cc(C(=O)Nc2nc(-c3ccc4c(c3)NC(=O)C(C)O4)cs2)cc(OC)c1OC (stereo not drawn)
677 s	Cc1cc2nc(N3CCOCC3)n(CC(=O)Nc3cc(F)cc(F)c3)c(=O)c2n1C
577 s	Cc1nccn1CC(=O)N1CCC(OCc2nc(C3CC3)no2)CC1
603 s	CCn1ccc(C(=O)N2CCC(N3C(=O)C(O)C34CCCCC4)CC2)n1 (stereo not drawn)
728 s	CCn1cc(C(=O)N[C@@H](Cc2ccccc2)C(=O)O)c(=O)c2cc3c(cc21)OCO3
668 s	c1ccc(-c2noc(N3CCN(c4ccccn4)CC3)n2)cc1
707 s	COc1ccc(S(=O)(=O)N2CCCC(C(=O)NC(C)(C)C)C2)cc1OC (stereo not drawn)
745 s	COc1ccc(Cc2nnc(C3CCN(C(=O)Cc4cccs4)CC3)s2)cc1
1050 s	CC1=NN(c2cccc(C(=O)O)c2)C(=O)/C1=C\c1ccc(-c2ccc(Cl)c(C(=O)O)c2)o1
644 s	Cc1cc(C)cc(NC(=O)N2CCN(c3cc(-c4cccnc4)[nH]n3)CC2)c1
999 s	Cn1nc(-c2nnc(-c3ccc(F)cc3)o2)c2c1CCN(S(=O)(=O)Cc1ccccc1)C2
701 s	O=C(COc1ccc(Cl)cc1Cl)NC1CC(=O)N(C2CC2)C1 (stereo not drawn)
807 s	CCn1nnc2ccc(-c3noc(-c4ccc(NC(C)=O)cc4)n3)cc21
557 s	CC(=O)N1CCc2cc(N3CC(C(=O)NCc4cccnc4)CC3=O)ccc21 (stereo not drawn)
1020 s	CCN(CC)S(=O)(=O)c1ccc2c(c1)N(CC(=O)NCc1ccccc1C)C(=O)C1CCCCN21 (stereo not drawn)
721 s	COc1ccc(OC)c(CNC(=O)C2CCN(S(=O)(=O)c3ccc4c(c3)NC(=O)CO4)CC2)c1
786 s	Cc1cc(C(=O)N2CCCCC2)c2c(=O)n(CC(=O)NC3CCCCC3)c(=O)n(C)c2n1
914 s	Cn1c(=O)n(C)c2cc(S(=O)(=O)C3CCCCC3)c(NC(=O)c3c(F)cccc3F)cc21
826 s	CCc1ccc(NC(=O)Cc2nnc3cc(-c4nc(CC)no4)ccn23)cc1

RP-LC retention time	Compound
693 s	Cc1ccc(NC(=O)C(=O)NCC(c2ccc3c(c2)OCO3)N2CCOCC2)c(C)c1 (stereo not drawn)
581 s	COc1ccc(-n2nc(C(N)=O)c(=O)cc2OC)cc1
630 s	C=CCNC(=O)C1COc2ccccc2O1 (stereo not drawn)
601 s	CC(=O)c1cccc(NC(=O)Cn2nc3c(cc2=O)CN(C(C)=O)CC3)c1
1000 s	O=C1[C@@H]2Cc3c([nH]c4ccccc34)C(CCc3ccccc3)N2C(=O)CN1Cc1ccco1 (stereo partly drawn)
646 s	O=C(CN1C(=O)C2CCCCN2c2ccc(S(=O)(=O)N3CCCC3)cc21)NCc1cccnc1 (stereo not drawn)
922 s	CCn1nccc1-c1cccc(-c2noc(CNC(=O)Cc3ccc(Cl)cc3)n2)c1
792 s	O=C(Cn1c(=O)c2cc(C3CC3)nn2c2ncccc21)Nc1ccc(F)c(F)c1
623 s	Cc1cnc(C(=O)N2CCCCCNC(=O)[C@@H]3CCC[C@@H]32)cn1
1270 s	Cc1sc(NC(=O)Cc2csc(-c3ccccc3)n2)nc1-c1cccc(Cl)c1
706 s	CCCC(NC(=O)c1ccc(N(C)C)cc1)C(=O)Nc1nc2ccccc2[nH]1 (stereo not drawn)
1300 s	O=S(=O)(c1cc(-c2cc(C(F)(F)F)on2)cs1)N1CCN(c2cccc(Cl)c2)CC1
764 s	COc1cccc(CNC(=O)CN2C(=O)NC(c3ccc(Cl)cc3)C3=C2COC3=O)c1 (stereo not drawn)
852 s	CCN1c2ccc(Cl)cc2C(=O)NC12CCN(C(=O)Nc1cccc(OC)c1)CC2
966 s	COc1ccc(-c2ncc3c(n2)CCN(C(=O)c2c(F)cccc2Cl)C3)cc1
756 s	O=C(Nc1ccc2c(c1)OCCO2)C1CCCN(S(=O)(=O)c2c[nH]c(C(=O)N3CCCC3)c2)C1 (stereo not drawn)
713 s	COc1ccc(N2CCN(c3ncc(C(=O)O)c(C)n3)CC2)cc1
782 s	Cn1cc(S(=O)(=O)N2CCC(C(=O)N3CCc4ccccc4C3)CC2)cc1C(=O)N1CCCC1
627 s	CCN(CCNC(=O)c1cccc2c1SCCC2=O)Cc1ccccc1
614 s	COc1cc(NC(=O)c2cn3c(n2)CCCC3)cc(OC)c1
674 s	CN(C)C(=O)c1n[nH]c2c1CN(C(=O)c1ccc(C(F)(F)F)cc1)CC2
622 s	CCOc1ccc2nc(SCC(=O)Nc3nccs3)[nH]c2c1

RP-LC retention time	Compound
682 s	CCOc1ccccc1NC(=O)C1CN(S(C)(=O)=O)CC12CCCCC2 (stereo not drawn)
807 s	CCS(=O)(=O)N1CC(=O)N(c2cccc(C)c2C)C(C)(C(=O)NCc2ccccc2)C1 (stereo not drawn)
972 s	CCCC(CCC)C(=O)N1CCCN(C2=NS(=O)(=O)C(c3ccc(F)cc3)=C2C)CC1
1100 s	COc1cccc(-c2nc(C3CCN(S(=O)(=O)c4ccc(F)cc4)CC3)no2)c1
697 s	COCc1nncn1C1CCN(S(=O)(=O)c2ccccc2Cl)CC1
728 s	CCN1CCN(C2CCN(C(=O)c3cc(C)cc(C)c3)CC2)C1=O
759 s	CCOc1ccccc1CNC(=O)C1CCN(Cc2cn(CC)c3ccc(OC)cc23)CC1
666 s	CNC(=O)c1cc(N(C)C)nc2c(Cl)cccc12
786 s	CC(=O)NCCCOc1ccc([N+](=O)[O-])cc1Cl
754 s	CC1(c2nc(-c3ccccc3)no2)CCCN(Cc2ncon2)C1 (stereo not drawn)
719 s	O=c1ccc(-c2nc(-c3ccncc3)no2)cn1Cc1noc(C2CCCC2)n1
785 s	CCc1cccc(NC(=O)C2CC(=O)N(c3ccc4oc(C)nc4c3)C2)c1 (stereo not drawn)
680 s	CCOc1ccc(-c2cc(=O)n(CCCC(=O)N3CCN(S(C)(=O)=O)CC3)cn2)cc1
682 s	Cn1cnnc1C1CCCCN1C(=O)COc1ccc(F)c(F)c1 (stereo not drawn)
721 s	COc1ccc(S(=O)(=O)CC(=O)Nc2nnc(-c3cc(C)oc3C)o2)cc1
706 s	CC(C)[C@H](CO)Nc1nc(Sc2cccc(N)c2)c2ncn(C(C)C)c2n1
956 s	CC1=C(C(=O)N(CC(=O)NCCc2ccccc2)c2ccc(Cl)cc2)SCCO1
569 s	COc1cc(NC(=O)N2CCC(n3c(C)nc4cccnc43)CC2)cc(OC)c1OC
994 s	Cc1cc(S(=O)(=O)[C@H]2CS(=O)(=O)C[C@@H]2N2CCN(c3ccccc3)CC2)ccc1F
908 s	CCC(=O)Nc1ccc(C2(C(=O)N3CCN(c4cccc(C)c4)CC3)CCC2)cc1
841 s	Cc1ccccc1NC(=O)CSc1nnc2c3cc(-c4ccccc4)nn3ccn12
784 s	CC(C)NC(=O)c1cc(N2CCCC2)n2nccc2n1

RP-LC retention time	Compound
644 s	COC(=O)CNC(=O)N1CCC(N2CCN(Cc3ccc(C)cc3)C(=O)C2=O)CC1
1210 s	CCCn1c(=O)c(C)nc2cc(-c3noc(/C=C/c4ccc(OC)cc4)n3)ccc21
961 s	COc1ccc(-c2ncc3c(n2)CCN(C(=O)Nc2ccccc2Br)C3)cc1
691 s	Cc1sc(NC(=O)c2ccco2)c(CN2CCN(c3ccc(F)cc3)CC2)c1C
722 s	Cc1cc(C(=O)Nc2nnc(Cc3ccc4c(c3)OCO4)o2)c(C)o1
697 s	CCOC(=O)Cc1[nH]nc2ccc(F)cc12
713 s	CN(C)S(=O)(=O)N1CC(c2noc(-c3cccnc3)n2)C2(CCOCC2)C1 (stereo not drawn)
1330 s	CC1(C)CC(=O)c2c(nc(N3CCN(c4ncccn4)CC3)nc2Nc2ccccc2)C1
695 s	CN(CC1CCOCC1)C(=O)Cc1ccccc1
1020 s	Cc1ccc(Cn2cc(-c3noc(-c4ccc5c(c4)OCO5)n3)nn2)cc1
802 s	COc1cccc(CNC(=O)C2(C)CCCN(C(=O)Nc3ccc4c(c3)OCCO4)C2)c1 (stereo not drawn)
666 s	COc1cccc(C(=O)Nc2c(-c3ccccc3)nc3ccccn23)c1OC
731 s	CCc1ccc(C2=C(C)C(N3CCCN(C(=O)NCCOC)CC3)=NS2(=O)=O)cc1
669 s	CC(C)(C)NC(=O)N1CCN(c2cc(-c3cccc(F)c3)ncn2)CC1
775 s	COc1ccc(OC)c(NC(=O)c2cc(C3CC3)[nH]n2)c1
732 s	CCn1cnc(S(=O)(=O)N2CCC(C(=O)NCC(C)c3ccccc3)CC2)c1 (stereo not drawn)
739 s	O=C(COc1cccc(C(F)(F)F)c1)N1CCN(c2ccc(-c3ccco3)nn2)CC1
679 s	CCOC(=O)c1c(CN2CCN(CCO)CC2)n(C)c2cc(Br)c(OC(C)=O)cc12
832 s	COc1ccc(-c2nc3ccc(Cl)cn3c2Nc2ccccc2C)cc1
997 s	O=C(Nc1cccc(Cl)c1)C(=O)c1cn(CC(=O)N2CCOCC2)c2ccccc12
1050 s	COc1ccc(N2CC(c3noc(-c4cc(Cl)ccc4F)n3)CC2=O)cc1 (stereo not drawn)
1100 s	Cc1ccc(-n2c(=O)c3sccc3n(Cc3nc(-c4cccc(C(F)(F)F)c4)no3)c2=O)cc1

Source: the METLIN SMRT retention time set (Domingo-Almenara et al. 2019)
